Measurements from PMC11961743 (Nature Communications, 2025).

System: SdPT
Experiment: HPLC prenylation assay, yeast microsomes
Assay type: biochemical, Saposhnikovia divaricata
Details: saturating DMAPP and MgCl2; optimum pH 10.0, 45 °C

A Km of 29.1 µM was found for `Cc1cc(=O)c2c(O)cc(O)cc2o1` [compound 2, noreugenin] in this work.
